23 molecules from patent US9353107B2 (Aurigene Discovery Technologies Limited, priority 2012, dated 2016) can be followed below.

The IC50 is the concentration that inhibits the measured activity by half. As a reminder, the inhibition is the percentage by which the read-out fell short of the control.

For the experiment, the target named is T1, recombinant human ALK enzyme (ALK WT) (Homo sapiens, UniProt Q9UM73).
T1 construct: purchased Carna Biosciences 08-518
Briefly: ALK WT cell free enzymatic assay (TR-FRET). The experiment is classed as biochemical. The following applies: 1 μM ATP; for IC50: 10 point dose response; for inhibition at 0.1 µM: compound at 100 nM; for inhibition at 0.1 µM / inhibition at 1 µM: 30 min pre-incubation; for inhibition at 1 µM: compound at 1 μM. In outline: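 Recombinant human ALK with 40 nM Ultra Light Poly GT, 1 μM ATP and Eu anti-phosphotyrosine antibody, 1% DMSO, pH 7.1 HEPES; 30 min enzyme-compound pre-incubation, then 30 min reaction. TR-FRET 665/615 ratio; percent inhibition at 100 nM and 1 μM, IC50 from 10-point sigmoidal fit.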
(In general: In TR-FRET formats the signal depends on donor and acceptor labels being close together.)

Structures can show the parent of a compound that is named as a salt.

T1 sequence (Q9UM73 1058-1620 limits assumed): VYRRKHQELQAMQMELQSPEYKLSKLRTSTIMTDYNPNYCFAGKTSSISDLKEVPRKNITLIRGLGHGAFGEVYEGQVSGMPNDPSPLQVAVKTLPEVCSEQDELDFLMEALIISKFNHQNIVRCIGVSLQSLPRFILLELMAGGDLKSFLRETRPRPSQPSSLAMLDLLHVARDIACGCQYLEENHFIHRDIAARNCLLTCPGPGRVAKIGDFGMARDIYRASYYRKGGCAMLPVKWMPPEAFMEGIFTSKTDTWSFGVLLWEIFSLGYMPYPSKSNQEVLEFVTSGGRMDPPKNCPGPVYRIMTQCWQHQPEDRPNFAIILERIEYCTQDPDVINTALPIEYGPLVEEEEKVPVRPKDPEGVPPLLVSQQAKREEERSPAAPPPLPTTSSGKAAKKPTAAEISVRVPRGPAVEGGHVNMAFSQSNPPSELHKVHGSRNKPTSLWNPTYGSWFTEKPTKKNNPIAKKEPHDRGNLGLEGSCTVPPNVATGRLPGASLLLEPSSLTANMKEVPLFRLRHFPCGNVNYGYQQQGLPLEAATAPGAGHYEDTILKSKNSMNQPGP

For `Cc1c(-c2c[nH]c3ncc(-c4ccc(N5CCN(C[C@H](C)O)CC5)nc4)cc23)cnn1Cc1cccc(F)c1` [Example 162, (S)-1-(4-(5-(3-(1-(3-fluorobenzyl)-5-methyl-1H-pyrazol-4-yl)-1H-pyrrolo[2,3-b]pyridin-5-yl)pyridin-2-yl)piperazin-1-yl)propan-2-ol], the concentration for half-maximal inhibition (IC50) is under 50 nM, the inhibition at 0.1 µM turned out to be 75% and the inhibition at 1 µM worked out at 96%.
As to `CS(=O)(=O)Nc1cc(-c2cnc3[nH]cc(-c4cnn(Cc5cccc(F)c5)c4)c3c2)ccc1N1CCN(CC(N)=O)CC1` [Example 110, 2-(4-(4-(3-(1-(3-fluorobenzyl)-1H-pyrazol-4-yl)-1H-pyrrolo[2,3-b]pyridin-5-yl)-2-(methylsulfonamido)phenyl)piperazin-1-yl)acetamide], the IC50 was under 50 nM, the inhibition at 0.1 µM came to 94% and the inhibition at 1 µM is 98%.
Turning to `c1ccc(Cn2cc(-c3c[nH]c4ncc(-c5ccc(C6CCNCC6)cc5)cc34)cn2)nc1` [Example 93, 5-(4-(piperidin-4-yl)phenyl)-3-(1-(pyridin-2-ylmethyl)-1H-pyrazol-4-yl)-1H-pyrrolo[2,3-b]pyridine], the IC50 was under 50 nM, the inhibition at 0.1 µM turned out to be 79% and the inhibition at 1 µM turned out to be 97%.
`CS(=O)(=O)Nc1cc(-c2cnc3[nH]cc(-c4cnn(Cc5cccc(F)c5)c4)c3c2)ccc1N1CCNCC1` [Example 106, N-(5-(3-(1-(3-fluorobenzyl)-1H-pyrazol-4-yl)-1H-pyrrolo[2,3-b]pyridin-5-yl)-2-(piperazin-1-yl)phenyl)methanesulfonamide hydrochloride]: the IC50 is under 50 nM, the inhibition at 0.1 µM stood at 97% and the inhibition at 1 µM was found to be 100%.
For the molecule `OCCN1CCN(c2ccc(-c3cnc4[nH]cc(-c5cnn(Cc6cccc(F)c6)c5)c4c3)cn2)CC1` [Example 142, 2-(4-(5-(3-(1-(3-fluorobenzyl)-1H-pyrazol-4-yl)-1H-pyrrolo[2,3-b]pyridin-5-yl)pyridin-2-yl)piperazin-1-yl)ethanol], the inhibition at 0.1 µM is 94% and the inhibition at 1 µM was 100%.
For the molecule `COc1ccc(-c2cnc3[nH]cc(-c4cnn(Cc5cccc(F)c5)c4)c3c2)cc1NS(=O)(=O)C1CC1` [Example 16, N-(5-(3-(1-(3-fluorobenzyl)-1H-pyrazol-4-yl)-1H-pyrrolo[2,3-b]pyridin-5-yl)-2-methoxyphenyl)cyclopropanesulfonamide], the inhibition at 0.1 µM is 33% and the inhibition at 1 µM was 66%.
With `COc1cccc(Cn2nc(C)c(-c3c[nH]c4ncc(-c5ccc(N6CCNCC6)cc5)cc34)c2C)c1` [Example 46, 3-(1-(3-methoxybenzyl)-3,5-dimethyl-1H-pyrazol-4-yl)-5-(4-(piperazin-1-yl)phenyl)-1H-pyrrolo[2,3-b]pyridine hydrochloride], the IC50 was under 50 nM, the inhibition at 0.1 µM came to 80% and the inhibition at 1 µM is 98%.
In the case of `NC(=O)CN1CCN(c2ccc(-c3cnc4[nH]cc(-c5cnn(Cc6cccc(F)c6)c5)c4c3)cc2)CC1` [Example 103, 2-(4-(4-(3-(1-(3-fluorobenzyl)-1H-pyrazol-4-yl)-1H-pyrrolo[2,3-b]pyridin-5-yl)phenyl)piperazin-1-yl)acetamide], the IC50 is under 50 nM, the inhibition at 0.1 µM is 95% and the inhibition at 1 µM is 100%.
On to `Cc1nn(Cc2cc(F)cc(F)c2)c(C)c1-c1c[nH]c2ncc(-c3ccc(F)c(NS(C)(=O)=O)c3)cc12` [Example 80, N-(5-(3-(1-(3,5-difluorobenzyl)-3,5-dimethyl-1H-pyrazol-4-yl)-1H-pyrrolo[2,3-b]pyridin-5-yl)-2-fluorophenyl)methanesulfonamide], for which the half-inhibitory concentration (IC50) is 50 to 250 nM, the inhibition at 0.1 µM is 65% and the inhibition at 1 µM was determined as 93%.
With `C[C@H](O)CN1CCN(c2ccc(-c3cnc4[nH]cc(-c5cnn(CCc6ccccc6)c5)c4c3)cc2)CC1` [Example 117, (S)-1-(4-(4-(3-(1-phenethyl-1H-pyrazol-4-yl)-1H-pyrrolo[2,3-b]pyridin-5-yl)phenyl)piperazin-1-yl)propan-2-ol], the IC50 was under 50 nM, the inhibition at 0.1 µM was determined as 91% and the inhibition at 1 µM is 95%.
For `C[C@H](O)CN1CCN(c2ccc(-c3cnc4[nH]cc(-c5cnn(Cc6cccc(F)c6)c5)c4c3)c(F)c2)CC1` [Example 121, (S)-1-(4-(3-fluoro-4-(3-(1-(3-fluorobenzyl)-1H-pyrazol-4-yl)-1H-pyrrolo[2,3-b]pyridin-5-yl)phenyl)piperazin-1-yl)propan-2-ol], the IC50 was under 50 nM, the inhibition at 0.1 µM was 91% and the inhibition at 1 µM was found to be 95%.
Turning to `COc1ccc(-c2cnc3[nH]cc(-c4cnn(Cc5cccc(F)c5)c4)c3c2)cc1NS(C)(=O)=O` [Example 13, N-(5-(3-(1-(3-fluorobenzyl)-1H-pyrazol-4-yl)-1H-pyrrolo[2,3-b]pyridin-5-yl)-2-methoxyphenyl) methane sulfonamide], the IC50 was under 50 nM and the inhibition at 1 µM is 96%.
For `c1cncc(Cn2cc(-c3c[nH]c4ncc(-c5ccc(N6CCNCC6)cc5)cc34)cn2)c1` [Example 131, 5-(4-(piperazin-1-yl)phenyl)-3-(1-(pyridin-3-ylmethyl)-1H-pyrazol-4-yl)-1H-pyrrolo[2,3-b]pyridine], the IC50 is under 50 nM, the inhibition at 0.1 µM turned out to be 83% and the inhibition at 1 µM worked out at 99%.
The like results for `COc1ccc(-c2cnc3[nH]cc(-c4cnn(Cc5cccnc5)c4)c3c2)cc1NS(C)(=O)=O` [Example 72, N-(2-methoxy-5-(3-(1-(pyridin-3-ylmethyl)-1H-pyrazol-4-yl)-1H-pyrrolo[2,3-b]pyridin-5-yl)phenyl)methanesulfonamide] were, in that order, 50 to 250 nM, 76% and 100%.
For the molecule `C[C@H](O)CN1CCC(c2ccc(-c3cnc4[nH]cc(-c5cnn(Cc6cccc(F)c6)c5)c4c3)cc2)CC1` [Example 82A, (S)-1-(4-(4-(3-(1-(3-fluorobenzyl)-1H-pyrazol-4-yl)-1H-pyrrolo[2,3-b]pyridin-5-yl)phenyl)piperidin-1-yl)propan-2-ol], the half-inhibitory concentration (IC50) is under 50 nM, the inhibition at 0.1 µM amounted to 96% and the inhibition at 1 µM was determined as 98%.
As to `COc1cc(-c2cnc3[nH]cc(-c4cnn(Cc5cccc(F)c5)c4)c3c2)ccc1NS(C)(=O)=O` [Example 68, N-(4-(3-(1-(3-fluorobenzyl)-1H-pyrazol-4-yl)-1H-pyrrolo[2,3-b]pyridin-5-yl)-2-methoxyphenyl) methanesulfonamide], the inhibition at 0.1 µM amounted to 70% and the inhibition at 1 µM stood at 93%.
Take `C[C@H](O)CN1CCN(c2ccc(-c3cnc4[nH]cc(-c5cnn(Cc6cccc(F)c6)c5)c4c3)cn2)CC1` [Example 138, (S)-1-(4-(5-(3-(1-(3-fluorobenzyl)-1H-pyrazol-4-yl)-1H-pyrrolo[2,3-b]pyridin-5-yl)pyridin-2-yl)piperazin-1-yl)propan-2-ol]: the concentration for half-maximal inhibition (IC50) is under 50 nM, the inhibition at 0.1 µM was 100% and the inhibition at 1 µM worked out at 100%.
For the molecule `CN1CCN(c2ccc(-c3cnc4[nH]cc(-c5cnn(Cc6cccc(F)c6)c5)c4c3)cn2)CC1` [Example 137, 3-(1-(3-fluorobenzyl)-1H-pyrazol-4-yl)-5-(6-(4-methylpiperazin-1-yl)pyridin-3-yl)-1H-pyrrolo[2,3-b]pyridine], the 50% inhibitory concentration (IC50) is under 50 nM, the inhibition at 0.1 µM was 99% and the inhibition at 1 µM came out at 100%.
Take `Cc1nn(Cc2cccc(F)c2)c(C)c1-c1c(C2CC2)[nH]c2ncc(-c3ccc(N4CCNCC4)cc3)cc12` [Example 63, 2-cyclopropyl-3-(1-(3-fluorobenzyl)-3,5-dimethyl-1H-pyrazol-4-yl)-5-(4-(piperazin-1-yl)phenyl)-1H-pyrrolo[2,3-b]pyridine]: the inhibition at 0.1 µM turned out to be 15% and the inhibition at 1 µM was 48%.
In the case of `CS(=O)(=O)Nc1cccc(-c2cnc3[nH]cc(-c4cnn(Cc5cccc(C#N)c5)c4)c3c2)c1` [Example 11, N-(3-(3-(1-(3-cyanobenzyl)-1H-pyrazol-4-yl)-1H-pyrrolo[2,3-b]pyridin-5-yl)phenyl)methane sulfonamide], the IC50 is under 50 nM, the inhibition at 0.1 µM turned out to be 64% and the inhibition at 1 µM was determined as 90%.
For the molecule `Fc1cccc(Cn2cc(-c3c[nH]c4ncc(-c5cccc(N6CCNCC6)c5)cc34)cn2)c1` [Example 33, 3-(1-(3-fluorobenzyl)-1H-pyrazol-4-yl)-5-(3-(piperazin-1-yl)phenyl)-1H-pyrrolo[2,3-b]pyridine hydrochloride], the IC50 was under 50 nM, the inhibition at 0.1 µM was determined as 97% and the inhibition at 1 µM amounted to 100%.
As for `COc1ccc(-c2cc3c(-c4c(C)nn(Cc5cccc(F)c5)c4C)c[nH]c3nc2C2CC2)cc1NS(C)(=O)=O` [Example 28, N-(5-(6-cyclopropyl-3-(1-(3-fluorobenzyl)-3,5-dimethyl-1H-pyrazol-4-yl)-1H-pyrrolo[2,3-b]pyridin-5-yl)-2-methoxyphenyl)methanesulfonamide], the inhibition at 0.1 µM was 14% and the inhibition at 1 µM came to 49%.
Regarding `CN(C)CC(=O)N1CCN(c2ccc(-c3cnc4[nH]cc(-c5cnn(Cc6cccc(F)c6)c5)c4c3)cc2)CC1` [Example 127, 2-(dimethylamino)-1-(4-(4-(3-(1-(3-fluorobenzyl)-1H-pyrazol-4-yl)-1H-pyrrolo[2,3-b]pyridin-5-yl)phenyl)piperazin-1-yl)ethanone], the IC50 is under 50 nM, the inhibition at 0.1 µM is 96% and the inhibition at 1 µM was 97%.
